{
  "source": "ChEMBL document CHEMBL5321272",
  "about": "(J Med Chem, 2023)",
  "key": {"hERG (KCNH2)": {"target": "hERG (KCNH2) (Homo sapiens, UniProt Q12809)", "assay": "Inhibition of hERG expressed in HEK293 cells at 20 uM by whole cell patch clamp analysis", "format": "toxicity, cell-based", "details": "HEK293 cells expressing hERG"}, "[1]": {"assay": "AUC (last) in ICR mouse at 10 mg/kg, po", "format": "ADME, organism-based", "set-up": "dose 10 mg/kg, route po", "details": "in vivo"}, "[2]": {"assay": "AUC (infinity) in ICR mouse at 10 mg/kg, po", "format": "ADME, organism-based", "set-up": "dose 10 mg/kg, route po", "details": "in vivo"}, "[3]": {"assay": "MRT (infinity) in ICR mouse at 10 mg/kg, po", "format": "ADME, organism-based", "details": "in vivo"}, "[4]": {"target": "Receptor-type tyrosine-protein kinase FLT3 (Homo sapiens, UniProt P36888, ITD)", "sequence (P36888 whole entry, looked up, change not shown)": "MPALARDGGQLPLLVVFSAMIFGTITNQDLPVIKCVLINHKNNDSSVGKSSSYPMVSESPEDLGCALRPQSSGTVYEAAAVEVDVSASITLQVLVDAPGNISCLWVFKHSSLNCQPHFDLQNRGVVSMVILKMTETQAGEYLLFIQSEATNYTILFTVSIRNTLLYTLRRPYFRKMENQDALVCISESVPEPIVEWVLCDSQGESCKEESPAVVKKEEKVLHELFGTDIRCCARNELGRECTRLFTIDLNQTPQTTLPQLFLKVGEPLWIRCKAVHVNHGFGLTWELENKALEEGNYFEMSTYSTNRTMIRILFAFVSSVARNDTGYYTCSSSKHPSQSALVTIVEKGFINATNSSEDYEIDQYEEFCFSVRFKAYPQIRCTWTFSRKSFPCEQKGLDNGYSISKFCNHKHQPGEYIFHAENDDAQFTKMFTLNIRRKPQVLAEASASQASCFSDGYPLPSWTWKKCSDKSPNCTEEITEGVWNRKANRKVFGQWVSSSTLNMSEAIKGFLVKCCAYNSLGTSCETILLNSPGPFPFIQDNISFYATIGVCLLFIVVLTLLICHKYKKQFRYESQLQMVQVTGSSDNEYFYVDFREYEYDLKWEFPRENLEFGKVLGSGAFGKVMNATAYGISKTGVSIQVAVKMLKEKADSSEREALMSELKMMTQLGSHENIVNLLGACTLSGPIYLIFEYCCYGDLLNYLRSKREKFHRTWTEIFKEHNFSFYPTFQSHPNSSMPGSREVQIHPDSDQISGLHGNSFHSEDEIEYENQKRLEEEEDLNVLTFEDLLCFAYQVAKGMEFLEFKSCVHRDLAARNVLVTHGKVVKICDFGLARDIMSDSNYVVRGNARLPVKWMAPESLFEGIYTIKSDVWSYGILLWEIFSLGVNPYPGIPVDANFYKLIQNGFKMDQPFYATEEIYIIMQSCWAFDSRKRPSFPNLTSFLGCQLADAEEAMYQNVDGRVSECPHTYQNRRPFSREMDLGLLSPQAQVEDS", "assay": "Inhibition of FLT3 ITD mutant (unknown origin) by HTRF assay"}, "AMPK alpha2/beta1/gamma1": {"target": "AMPK alpha2/beta1/gamma1 (Homo sapiens, UniProt P54619+P54646+Q9Y478)", "sequence (P54646 whole entry)": "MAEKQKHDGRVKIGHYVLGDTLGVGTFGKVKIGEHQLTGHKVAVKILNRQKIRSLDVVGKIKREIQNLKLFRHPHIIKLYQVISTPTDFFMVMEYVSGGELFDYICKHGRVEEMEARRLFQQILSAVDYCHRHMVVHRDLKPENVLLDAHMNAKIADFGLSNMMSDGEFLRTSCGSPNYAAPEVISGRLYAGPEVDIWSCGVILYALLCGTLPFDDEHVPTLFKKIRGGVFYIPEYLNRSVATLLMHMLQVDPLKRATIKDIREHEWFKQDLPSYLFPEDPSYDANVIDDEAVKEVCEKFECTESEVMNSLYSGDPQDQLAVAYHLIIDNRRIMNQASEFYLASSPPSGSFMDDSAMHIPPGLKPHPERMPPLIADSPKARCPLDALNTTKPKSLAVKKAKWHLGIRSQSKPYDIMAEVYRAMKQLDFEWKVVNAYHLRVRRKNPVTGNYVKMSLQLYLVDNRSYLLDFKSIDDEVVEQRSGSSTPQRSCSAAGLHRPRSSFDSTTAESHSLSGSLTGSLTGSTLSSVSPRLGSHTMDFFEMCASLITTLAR", "sequence (P54619 whole entry)": "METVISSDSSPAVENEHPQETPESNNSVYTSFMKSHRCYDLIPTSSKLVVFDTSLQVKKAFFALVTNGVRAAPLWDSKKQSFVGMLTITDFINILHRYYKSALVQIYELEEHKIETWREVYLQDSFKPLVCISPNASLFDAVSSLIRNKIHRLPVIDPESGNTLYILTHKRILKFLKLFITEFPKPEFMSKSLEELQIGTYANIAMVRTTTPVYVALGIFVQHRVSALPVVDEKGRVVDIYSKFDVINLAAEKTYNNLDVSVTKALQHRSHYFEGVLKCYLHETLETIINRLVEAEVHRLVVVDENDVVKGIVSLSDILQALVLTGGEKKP", "sequence (Q9Y478 whole entry)": "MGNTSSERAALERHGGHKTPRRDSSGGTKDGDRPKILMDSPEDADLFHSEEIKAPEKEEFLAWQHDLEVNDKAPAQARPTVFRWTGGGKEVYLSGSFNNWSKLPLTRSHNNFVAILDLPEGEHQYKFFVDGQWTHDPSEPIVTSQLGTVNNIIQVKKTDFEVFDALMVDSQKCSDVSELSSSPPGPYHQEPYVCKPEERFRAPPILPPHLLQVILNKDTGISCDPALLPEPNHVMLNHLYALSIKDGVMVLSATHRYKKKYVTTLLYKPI", "assay": "Inhibition of AMPK alpha2beta1gamma1 (unknown origin) by HTRF assay", "format": "protein-complex assay"}, "[5]": {"target": "Mitogen-activated protein kinase kinase kinase 7 (Homo sapiens, UniProt O43318)", "sequence (O43318 whole entry)": "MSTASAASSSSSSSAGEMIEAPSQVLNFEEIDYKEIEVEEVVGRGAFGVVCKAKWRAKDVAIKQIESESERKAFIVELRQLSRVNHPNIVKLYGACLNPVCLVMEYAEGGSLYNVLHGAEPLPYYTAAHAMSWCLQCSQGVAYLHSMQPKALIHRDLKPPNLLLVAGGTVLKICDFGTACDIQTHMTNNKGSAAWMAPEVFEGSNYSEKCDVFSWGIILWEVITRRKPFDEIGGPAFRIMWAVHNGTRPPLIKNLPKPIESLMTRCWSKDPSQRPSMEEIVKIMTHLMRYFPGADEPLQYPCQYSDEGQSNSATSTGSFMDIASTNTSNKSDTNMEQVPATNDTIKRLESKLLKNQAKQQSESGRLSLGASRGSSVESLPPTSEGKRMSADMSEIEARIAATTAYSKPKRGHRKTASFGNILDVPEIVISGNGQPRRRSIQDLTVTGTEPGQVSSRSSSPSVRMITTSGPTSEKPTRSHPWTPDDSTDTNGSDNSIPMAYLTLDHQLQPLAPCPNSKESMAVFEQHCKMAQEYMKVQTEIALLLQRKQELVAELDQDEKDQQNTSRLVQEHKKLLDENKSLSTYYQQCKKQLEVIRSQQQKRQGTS", "assay": "Inhibition of TAK1 (unknown origin) by HTRF assay"}, "[6]": {"target": "Hepatocyte growth factor receptor (Homo sapiens, UniProt P08581)", "assay": "Inhibition of MET (unknown origin) by HTRF assay"}, "[7]": {"assay": "Selectivity ratio of IC50 for JAK3 (unknown origin) to IC50 for FLT3-ITD mutant (unknown origin)"}, "[8]": {"assay": "Selectivity ratio of IC50 for HCK (unknown origin) to IC50 for FLT3-ITD mutant (unknown origin)"}, "[9]": {"assay": "Selectivity ratio of IC50 for LYN (unknown origin) to IC50 for FLT3-ITD mutant (unknown origin)"}, "[10]": {"assay": "Selectivity ratio of IC50 for TEC (unknown origin) to IC50 for FLT3-ITD mutant (unknown origin)"}, "[11]": {"assay": "Selectivity ratio of IC50 for EGFR (unknown origin) to IC50 for FLT3-ITD mutant (unknown origin)"}, "[12]": {"assay": "Selectivity ratio of IC50 for MET (unknown origin) to IC50 for FLT3-ITD mutant (unknown origin)"}, "[13]": {"assay": "Selectivity ratio of IC50 for AMPK alpha2beta1gamma1 (unknown origin) to IC50 for FLT3-ITD mutant (unknown origin)"}, "[14]": {"assay": "Selectivity ratio of IC50 for PIM1 (unknown origin) to IC50 for FLT3-ITD mutant (unknown origin)"}, "[15]": {"assay": "Selectivity ratio of IC50 for P70S6K (unknown origin) to IC50 for FLT3-ITD mutant (unknown origin)"}, "[16]": {"assay": "Selectivity ratio of IC50 for CDK1 (unknown origin) to IC50 for FLT3-ITD mutant (unknown origin)"}, "[17]": {"assay": "Selectivity ratio of IC50 for CDK2 (unknown origin) to IC50 for FLT3-ITD mutant (unknown origin)"}, "[18]": {"assay": "Selectivity ratio of IC50 for CK1alpha (unknown origin) to IC50 for FLT3-ITD mutant (unknown origin)"}, "[19]": {"assay": "Selectivity ratio of IC50 for ASK1 (unknown origin) to IC50 for FLT3-ITD mutant (unknown origin)"}, "MM1.S": {"tested_on": "MM1.S", "assay": "Antiproliferative activity against human MM1.S cells assessed as reduction in cell viability incubated for 72 hrs by CellTiter 96 Aqueous One Solution Cell Proliferation Assay", "format": "functional, cell-based"}, "[20]": {"target": "T1, Voltage-gated inwardly rectifying potassium channel KCNH2 (Homo sapiens, UniProt Q12809)", "T1 sequence (Q12809 whole entry)": "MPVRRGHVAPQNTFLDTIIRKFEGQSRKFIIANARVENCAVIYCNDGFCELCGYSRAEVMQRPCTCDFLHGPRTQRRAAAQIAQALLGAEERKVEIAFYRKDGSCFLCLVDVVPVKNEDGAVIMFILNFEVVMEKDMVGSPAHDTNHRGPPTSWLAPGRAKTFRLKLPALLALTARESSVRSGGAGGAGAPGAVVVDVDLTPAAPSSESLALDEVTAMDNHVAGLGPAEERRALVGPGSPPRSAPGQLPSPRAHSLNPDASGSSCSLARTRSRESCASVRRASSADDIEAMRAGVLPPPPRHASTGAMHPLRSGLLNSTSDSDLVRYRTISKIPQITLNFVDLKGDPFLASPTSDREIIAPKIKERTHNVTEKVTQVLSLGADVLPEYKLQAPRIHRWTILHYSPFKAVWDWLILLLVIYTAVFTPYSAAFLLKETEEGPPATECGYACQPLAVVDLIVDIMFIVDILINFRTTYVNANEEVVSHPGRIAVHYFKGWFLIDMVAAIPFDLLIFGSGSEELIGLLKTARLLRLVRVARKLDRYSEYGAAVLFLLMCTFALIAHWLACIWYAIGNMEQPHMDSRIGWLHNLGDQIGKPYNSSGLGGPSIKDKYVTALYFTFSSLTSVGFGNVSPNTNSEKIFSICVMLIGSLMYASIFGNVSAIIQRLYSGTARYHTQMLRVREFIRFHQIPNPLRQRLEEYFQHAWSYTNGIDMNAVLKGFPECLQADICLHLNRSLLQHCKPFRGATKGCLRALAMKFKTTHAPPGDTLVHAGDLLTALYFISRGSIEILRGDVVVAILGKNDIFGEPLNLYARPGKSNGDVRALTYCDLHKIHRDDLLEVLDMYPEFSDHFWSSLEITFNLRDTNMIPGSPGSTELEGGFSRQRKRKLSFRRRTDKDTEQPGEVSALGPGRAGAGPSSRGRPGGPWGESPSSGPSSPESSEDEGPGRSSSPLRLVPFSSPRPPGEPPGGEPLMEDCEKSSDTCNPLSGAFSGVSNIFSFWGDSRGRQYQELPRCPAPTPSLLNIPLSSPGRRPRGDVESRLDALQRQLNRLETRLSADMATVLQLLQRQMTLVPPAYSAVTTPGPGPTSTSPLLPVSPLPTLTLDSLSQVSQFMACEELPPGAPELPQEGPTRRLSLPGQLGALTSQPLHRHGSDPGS", "assay": "Inhibition of hERG expressed in HEK293 cells assessed as fast channel deactivation at 100 uM by whole cell patch clamp analysis", "format": "toxicity, cell-based", "details": "hek293, 100 µM"}, "[21]": {"target": "T1, Voltage-gated inwardly rectifying potassium channel KCNH2", "assay": "Inhibition of hERG expressed in HEK293 cells assessed as inhibition of channel current amplitude at 100 uM by whole cell patch clamp analysis", "format": "toxicity, cell-based", "details": "hek293, 100 µM"}, "[22]": {"target": "Receptor-type tyrosine-protein kinase FLT3 (Homo sapiens) (UniProt P36888)", "sequence (P36888 whole entry)": "as the sequence (P36888 whole entry, looked up, change not shown) above", "assay": "Inhibition of FLT3 in human MV4-11 cells assessed as inhibition of AKT phosphorylation at Ser473 residue measured after 90 mins by western blot analysis", "format": "cell-based", "details": "dose 20-100 nM"}, "[23]": {"target": "Receptor-type tyrosine-protein kinase FLT3 (Homo sapiens) (UniProt P36888)", "assay": "Inhibition of FLT3 in human MV4-11 cells assessed as inhibition of STAT5 phosphorylation at Tyr694 residue at 20 nM measured after 90 mins by western blot analysis", "format": "cell-based"}, "[24]": {"target": "Receptor-type tyrosine-protein kinase FLT3 (Homo sapiens) (UniProt P36888)", "assay": "Inhibition of FLT3 in human MV4-11 cells assessed as inhibition of ERK phosphorylation at Tyr204 residue at 20 nM measured after 90 mins by western blot analysis", "format": "cell-based"}, "[25]": {"target": "T2, Serine/threonine-protein kinase Chk1 (Homo sapiens) (UniProt O14757)", "T2 sequence (whole entry)": "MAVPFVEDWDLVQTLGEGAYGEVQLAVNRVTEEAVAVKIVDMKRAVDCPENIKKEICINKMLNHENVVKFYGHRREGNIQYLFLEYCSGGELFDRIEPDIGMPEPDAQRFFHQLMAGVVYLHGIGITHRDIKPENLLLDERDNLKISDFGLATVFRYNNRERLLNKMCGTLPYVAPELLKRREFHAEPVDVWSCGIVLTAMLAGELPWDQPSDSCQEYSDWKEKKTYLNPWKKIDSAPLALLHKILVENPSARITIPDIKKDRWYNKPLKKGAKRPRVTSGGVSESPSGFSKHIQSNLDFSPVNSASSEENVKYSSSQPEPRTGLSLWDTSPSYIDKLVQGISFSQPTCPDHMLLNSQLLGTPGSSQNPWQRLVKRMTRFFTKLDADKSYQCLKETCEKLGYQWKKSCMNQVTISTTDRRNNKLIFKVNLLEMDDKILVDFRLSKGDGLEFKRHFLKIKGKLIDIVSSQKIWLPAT", "assay": "Inhibition of CHK1 in human MV4-11 cells assessed as downregulation of c-Myc protein expression at 50 to 200 nM measured after 90 mins by western blot analysis", "format": "cell-based", "details": "dose 50-200 nM"}, "[26]": {"target": "T2, Serine/threonine-protein kinase Chk1 (Homo sapiens)", "assay": "Inhibition of CHK1 in human MV4-11 cells assessed as upregulation of p53 protein expression measured after 90 mins by western blot analysis", "format": "cell-based", "details": "dose 50-200 nM"}, "[27]": {"assay": "Toxicity against nu/nu mouse xenografted with human MV4-11 cells assessed as body weight changes at 1 to 3 mg/kg, po qd for 22 days", "format": "organism-based", "details": "in vivo, 528 h, dose 1-3 mg/kg, time 22 day"}, "MOLM-13": {"tested_on": "MOLM-13", "assay": "Antitumor activity against human MOLM-13 cells xenografted in NSG mouse assessed as prolongation of animal's survival at 15 mg/kg, po qd for 26 days", "format": "functional, organism-based", "details": "time 26.0 day"}, "[28]": {"assay": "Acute toxicity in ICR mouse assessed as animal's death at 300 mg/kg, ig and measured for 7 days", "format": "organism-based", "details": "in vivo, po, 168 h, time 7 day"}, "[29]": {"assay": "Acute toxicity in ICR mouse assessed as morphological changes in lungs at 300 mg/kg, ig and measured for 7 days by Hematoxylin-Eosin staining based analysis", "format": "organism-based", "details": "in vivo, po, 168 h, time 7 day"}, "[30]": {"target": "T3, Serine/threonine-protein kinase Chk1 (Homo sapiens, UniProt O14757)", "T3 sequence (O14757 whole entry)": "T2 sequence (whole entry)", "description": "Inhibition of CHK1 (unknown origin) using peptide substrate S1 and ATP as substrate incubated for 1 hr by HTRF assay"}, "MV4-11": {"tested_on": "MV4-11", "assay": "cells", "details": "Homo sapiens, MV4-11, 72 h", "description": "Antiproliferative activity against human MV4-11 cells assessed as reduction in cell viability incubated for 72 hrs by CellTiter 96 Aqueous One Solution Cell Proliferation Assay"}},
  "note": "Calls of active or inactive are those of the source. The calls are words filed in the database; no cut-off is given here.",
  "data": [
    {"compound": "CC(C)(O)CC(=O)N1CCc2cc(Nc3ncc(C(F)(F)F)c(N[C@H]4CC[C@@H](N)CC4)n3)ccc2C1", "values": [
      {"measurement": "inhibition at 20 µM", "setting": "hERG (KCNH2)", "result": 2.37, "unit": "%"},
      {"measurement": "AUC(0-t)", "setting": "[1]", "result": 1570, "unit": "ng·h/mL"},
      {"measurement": "AUC(0-inf)", "setting": "[2]", "result": 1660, "unit": "ng·h/mL"},
      {"measurement": "MRT inf", "setting": "[3]", "result": 5.73, "unit": "h"},
      {"measurement": "IC50", "setting": "[4]", "result": "< 10", "unit": "nM"},
      {"measurement": "IC50", "setting": "AMPK alpha2/beta1/gamma1", "result": 18.4, "unit": "nM"},
      {"measurement": "IC50", "setting": "[5]", "result": 64.3, "unit": "nM"},
      {"measurement": "IC50", "setting": "[6]", "result": "> 10000", "unit": "nM"},
      {"measurement": "Ratio IC50", "setting": "[7]", "result": "> 100"},
      {"measurement": "Ratio IC50", "setting": "[8]", "result": "> 100"},
      {"measurement": "Ratio IC50", "setting": "[9]", "result": "> 100"},
      {"measurement": "Ratio IC50", "setting": "[10]", "result": "> 100"},
      {"measurement": "Ratio IC50", "setting": "[11]", "result": "> 100"},
      {"measurement": "Ratio IC50", "setting": "[12]", "result": "> 100"},
      {"measurement": "Ratio IC50", "setting": "[13]", "result": "> 100"},
      {"measurement": "Ratio IC50", "setting": "[14]", "result": "> 100"},
      {"measurement": "Ratio IC50", "setting": "[15]", "result": "> 100"},
      {"measurement": "Ratio IC50", "setting": "[16]", "result": "> 100"},
      {"measurement": "Ratio IC50", "setting": "[17]", "result": "> 100"},
      {"measurement": "Ratio IC50", "setting": "[18]", "result": "> 100"},
      {"measurement": "Ratio IC50", "setting": "[19]", "result": "> 100"},
      {"measurement": "Activity", "setting": "MM1.S", "result": "inactive"},
      {"measurement": "inhibition (INH)", "setting": "[20]", "result": "Active"},
      {"measurement": "inhibition (INH)", "setting": "[21]", "result": "Active"},
      {"measurement": "inhibition", "setting": "[22]", "result": "Dose-Dependent Effect"},
      {"measurement": "inhibition", "setting": "[23]", "result": 100, "unit": "%"},
      {"measurement": "inhibition", "setting": "[24]", "result": 100, "unit": "%"},
      {"measurement": "inhibition", "setting": "[25]", "result": "Active"},
      {"measurement": "inhibition", "setting": "[26]", "result": "Dose-Dependent Effect"},
      {"measurement": "Activity", "setting": "[27]", "result": "Non-Toxic"},
      {"measurement": "Activity", "setting": "MOLM-13", "result": "inactive"},
      {"measurement": "Activity", "setting": "[28]", "result": "Non-Toxic"},
      {"measurement": "Activity", "setting": "[29]", "result": "Non-Toxic"},
      {"measurement": "IC50", "setting": "[30]", "result": 9.8, "unit": "nM"},
      {"measurement": "IC50", "setting": "MV4-11", "result": 0.21, "unit": "nM"}
    ]}
  ]
}
